According to publication PMC5427467, “Isolation and characterization of phthalates from Brevibacterium mcbrellneri that cause cytotoxicity and cell cycle arrest” (EXCLI Journal, 2017):
Converted amounts (≈) assume the structure as drawn. Read-outs that look alike come from different tables or passages of the source.

Columns and labels:
[1] = tested on: Bacillus subtilis (MTCC 441); assay: Anti-bacterial activity, MIC in 96-well broth dilution; assay type: cell-based; conditions: MTCC441, B. subtilis, 24 hrs at 37 °C
Protocol: (§1) The antibacterial evaluation was carried out against Gram positive bacteria; Staphylococcus epidermidis (MTCC 435), Bacillus subtilis (MTCC 441), Staphylococcus aureus (MTCC 96), and Gram negative bacteria; Pseudomonas aeruginosa (MTCC 741), E. coli (MTCC 443) and Klebsiella pneumoniae (MTCC 618). Brevibacterium mcbrellneri MTCC (3913) was chosen for isolation of biologically active compounds.
(§2) The minimum inhibitory concentrations (MIC) were recorded against Staphylococcus aureus, Bacillus subtilis, Staphylococcus epidermidis, Pseudomonas aeruginosa, Escherichia coli and Klebsiella pneumoniae. In brief 96-well plates were distributed with Nutrient broth and the compounds in different concentrations (150 μg/mL to 0.5μg/mL). 50 μL microbial suspensions were seeded into each well (0.5 MacFarland standards) to make the final volume of 200 μl with culture broth. The plates were incubated for 24 hrs at 37 °C. The lowest concentration, at which the visible inhibition was recorded, was considered as MIC. Streptomycin and Benzylpenicillin were used as positive controls.

E. coli (MTCC 443) = assay: as above; assay type: cell-based; conditions: Escherichia coli, MTCC443, 24 hrs at 37 °C
Protocol: as §1, §2

[2] = tested on: Klebsiella pneumoniae (MTCC 618); assay: as above; assay type: cell-based; conditions: MTCC618, K. pneumoniae, 24 hrs at 37 °C
Protocol: as §1, §2

[3] = tested on: Pseudomonas aeruginosa (MTCC 741); assay: as above; assay type: cell-based; conditions: MTCC741, P. aeroginosa, 24 hrs at 37 °C
Protocol: as §1, §2

[4] = tested on: Staphylococcus aureus (MTCC 96); assay: as above; assay type: cell-based; conditions: MTCC96, S. aureus, 24 hrs at 37 °C
Protocol: as §1, §2

[5] = tested on: Staphylococcus epidermidis (MTCC 435); assay: as above; assay type: cell-based; conditions: MTCC435, S. epidermidis, 24 hrs at 37 °C
Protocol: as §1, §2

[6] = tested on: 4th instar larvae of Aedes aegypti; assay: Larvicidal bioassay/Dose-response bioassay; assay type: in vivo; conditions: 4th instar Aedes aegypti larvae, 24 h exposure
Protocol: The early 4th instar larvae of Aedes aegypti were selected for evaluation of mosquito larvicidal activity. The larvae were collected and fed with a mixture powdered yeast and dog biscuits. These were maintained in insectaries till the emergence of adults. The colony was photo periodically maintained at 14 L: 10 D (hours) and with relative humidity 80 ± 5 % at 28 °C (Kumar et al., 2010[16]). Adult mosquitoes were fed with blood for egg maturation. The eggs were allowed to hatch in an enamel bowl lined with Whatman filter paper filled with distilled water. The pupae formed were separated and transferred to insectary for the emergence of adults (da Silva et al., 2016[6]).
Based on the preliminary screening results, different concentrations ranging from 25 to 200 ppm were prepared for DEHP and 25 to 1 ppm for DBP were used. The compounds were subjected to dose response bioassay against 4th instar larvae of Aedes aegypti larvae. Dead larvae were counted after 24 h of exposure, and the percentage mortality was reported from the average of triplicates (Govindarajan et al., 2016[9]).

CHO = assay: MTT cell proliferation assay; assay type: cell-based; conditions: Cricetulus griseus, 24 hrs
Protocol: (§3) The MTT cell proliferation was assessed against the cell lines HeLa (ATCC; CCL-2), A549 (ATCC; CCL-185), MCF-7 (ATCC; HTB-22), DU145 (ATCC; HTB-81), CHO (ATCC; CCL-61), HEK293 (ATCC; CRL-1573), NIH3T3 (ATCC; CRL-1658) were procured from the American Type Culture Collection (ATCC). These cell lines were grown and maintained in Dulbecco's modified Eagle's medium with non-essential amino acids, 10 % fetal bovine serum (FBS), 1 mM sodium pyruvate, in humidified atmosphere containing 5 % CO2 at 37 °C (Esumi et al., 2004[7]).
(§4) The cell lines were seeded in 96-well plates in 200 µL aliquots. The test compounds in different concentrations were added and incubated at 37 °C for 24 hrs. Doxorubicin was used as positive control (Prata-Sena et al., 2016[28]).

DU-145 = assay: MTT cell proliferation assay; assay type: cell-based; conditions: Homo sapiens; DU-145, MTT, 24 hrs
Protocol: as §3, §4

HEK 293 = assay: MTT cell proliferation assay; assay type: cell-based; conditions: Homo sapiens, HEK293; HEK 293, MTT, 24 hrs
Protocol: as §3, §4

MCF-7 = assay: MTT cell proliferation assay; assay type: cell-based; conditions: Homo sapiens, MCF7; MCF-7, MTT, 24 hrs
Protocol: as §3, §4

E. coli = tested on: E. coli; design: method as in Roy et al., 2006 [30]; conditions: DBP isolated from Streptomyces albidoflavus, ref Roy et al., 2006 [30]; cited from earlier work
B. subtilis [7] = tested on: B. subtilis; design: method as in Roy et al., 2006 [30]; conditions: DBP isolated from Streptomyces albidoflavus, ref Roy et al., 2006 [30]; cited from earlier work
S. typhi = tested on: S. typhi; design: method as in Roy et al., 2006 [30]; conditions: DBP isolated from Streptomyces albidoflavus, ref Roy et al., 2006 [30]; cited from earlier work
S. cerevisiae = tested on: S. cerevisiae; design: method as in Roy et al., 2006 [30]; conditions: DBP isolated from Streptomyces albidoflavus, ref Roy et al., 2006 [30]; cited from earlier work
A. niger = tested on: A. niger; design: method as in Roy et al., 2006 [30]; conditions: DBP isolated from Streptomyces albidoflavus, ref Roy et al., 2006 [30]; cited from earlier work
Curvularia pallescens = tested on: Curvularia pallescens; design: method as in Roy et al., 2006 [30]; conditions: DBP isolated from Streptomyces albidoflavus, ref Roy et al., 2006 [30]; cited from earlier work
A549 cells = tested on: A549 cells; design: method as in Hsu et al., 2011 [14]; conditions: ref Hsu et al., 2011 [14]; cited from earlier work
B. subtilis [8] = tested on: B. subtilis; design: method as in Habib and Karim, 2009 [10]; conditions: DEHP isolated from Calotropis gigantean, ref Habib and Karim, 2009 [10]; cited from earlier work
Sarcina lutea = tested on: Sarcina lutea; design: method as in Habib and Karim, 2009 [10]; conditions: DEHP isolated from Calotropis gigantean, ref Habib and Karim, 2009 [10]; cited from earlier work
[9] = design: method as in Habib and Karim, 2009 [10]; conditions: DEHP isolated from Calotropis gigantean; ref Habib and Karim, 2009 [10]; cited from earlier work
HaCaT cells = tested on: HaCaT cells; design: method as in Peropadre et al., 2015 [26]; conditions: ref Peropadre et al., 2015 [26]; cited from earlier work
HePG2 cells = tested on: HePG2 cells; design: method as in Lyu et al., 2016 [19]; conditions: ref Lyu et al., 2016 [19]; cited from earlier work

| Compound | MIC [1] [µg/mL] | MIC (E. coli (MTCC 443)) [µg/mL] | MIC [2] [µg/mL] | MIC [3] [µg/mL] | MIC [4] [µg/mL] | MIC [5] [µg/mL] | LC50 [6] [ppm] | IC50 (CHO) [µg/mL] | IC50 (DU-145) [µg/mL] | IC50 (HEK 293) [µg/mL] | IC50 (MCF-7) [µg/mL] | also measured |
| --- | --- | --- | --- | --- | --- | --- | --- | --- | --- | --- | --- | --- |
| CCCCOC(=O)c1ccccc1C(=O)OCCCC [DBP, dibutyl phthalate] | 18.8 (≈ 67.4 µM) | 37.5 (≈ 135 µM) | 75 (≈ 269 µM) | 37.5 (≈ 135 µM) | 37.5 (≈ 135 µM) | 18.8 (≈ 67.4 µM) | 1.62 | 36 ± 8.6 (≈ 129 µM) | 31.2 ± 8.7 (≈ 112 µM) | 19.8 ± 10 (≈ 71 µM) | 32.4 ± 3.6 (≈ 117 µM) | mortality at 25 ppm ([6]; at 25 ppm): 100%; MIC (E. coli): 53 µg/mL (≈ 190 µM); MIC (B. subtilis [7]): 84 µg/mL (≈ 302 µM); MIC (S. typhi): 76 µg/mL (≈ 273 µM); MIC (S. cerevisiae): 92 µg/mL (≈ 331 µM); MIC (A. niger): 98 µg/mL (≈ 352 µM); MIC (Curvularia pallescens): 117 µg/mL (≈ 420 µM); cytotoxic activity (A549 cells): Cytotoxic activity |
| CCCCC(CC)COC(=O)c1ccccc1C(=O)OCC(CC)CCCC (centres unmarked) [DEHP, di-(2-ethylhexyl) phthalate] | 37.5 (≈ 96 µM) | 37.5 (≈ 96 µM) | 75 (≈ 192 µM) | 75 (≈ 192 µM) | 18.8 (≈ 48 µM) | 9.37 (≈ 24 µM) | 47.65 | 193 ± 5.4 (≈ 494 µM) | 33.5 ± 7.7 (≈ 85.7 µM) |  | 46.55 ± 0.1 (≈ 119 µM) | MIC (B. subtilis [8]): 32 µg/mL (≈ 81.9 µM); MIC (Sarcina lutea): 32 µg/mL (≈ 81.9 µM); antifungal property [9]: negligible; cell cycle effect (HaCaT cells): cell cycle arrest at G1 phase; apoptosis / cell cycle effect (HePG2 cells): apoptosis without cell cycle arrest |
| COc1cccc2c1C(=O)c1c(O)c3c(c(O)c1C2=O)C[C@@](O)(C(=O)CO)C[C@@H]3O[C@H]1C[C@H](N)[C@H](O)[C@H](C)O1 [doxorubicin, Doxorubicin, reference compound] |  |  |  |  |  |  |  |  |  | 21.8 ± 8.8 (≈ 40.1 µM) |  |  |
